Patent US8945540B2, “Compositions for enhancing the antibacterial activity of myeloperoxidase and methods of use thereof” (Exoxemis, Inc., priority 2008, dated 2015)
Read-outs that look alike come from different tables or passages of the source.

Tests used:
Staphylococcus aureus [1] = assay: Microbicidal activity of the myeloperoxidase system (p-MPO, glucose oxidase, glucose) with amino acids in the presence of blood, CFU plate counts; synergy determination from these CFU; format: cell-based; conditions: for Average Viability CFU/ml 60 min / Log Reduction 60 min / Log 10 (CFU + 1) Survivors 60 min: MPO 38 U/ml, GO 33.3 U/ml, blood; for Average Viability CFU/ml 50 min / Log Reduction 50 min: MPO 4.7 U/ml, GO 4.2 U/ml
In short: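 Staphylococcus aureus grown 24 hours in TSB at 35° C was washed in saline and added at a final 2-3×10^7 CFU per mL. The bacteria were mixed in 1 mL reactions with porcine myeloperoxidase, glucose oxidase, amino acids, 150 mM sodium chloride and 3% venous whole blood. Adding glucose to 150 mM started killing. After catalase addition, survivors were counted by serial dilution plating on TSA at 37° C for 24 hours.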

Staphylococcus aureus [2] = assay: Control: microbicidal activity of the amino acid or analogue alone (no glucose, MPO, glucose oxidase) in the presence of blood; format: cell-based; conditions: for log reduction at 5000 µM: Staphylococcus aureus, 1 h, read-out: Log Reduction 60 min
Description: As a control to determine the microbicidal activity of the amino acids alone, the foregoing procedure was followed without replication, except in the absence of glucose, MPO, and glucose oxidase.

[3] = Table 7, amino acid analogue 5 mM
[4] = amino acid analogue alone 5 mM, MPO 0, GO 0, no glucose, blood
[5] = MPO 100 μg/mL, AA 20 mM, 30 min
[6] = MPO 100 μg/mL, AA 20 mM, 60 min
[7] = Table 2, amino acid 5 mM (none: 0 mM)
[8] = Table 10, single amino acid 2.5 mM, in the presence of blood
[9] = Table 13, single amino acid 2.5 mM, in the presence of blood
[10] = Table 14, single amino acid 2.5 mM, in the presence of blood
[11] = amino acid alone 5 mM, MPO 0, GO 0, no glucose, blood, without replication
[12] = Table 3, amino acid 5 mM (none: 0 mM)
[13] = Table 5, amino acid 5 mM (none: 0 mM)
[14] = Table 11, single amino acid 2.5 mM, in the presence of blood

| SMILES | Log 10 (CFU + 1) Survivors (Staphylococcus aureus [1]; MPO 25 μg/mL, AA 5 mM, 30 min) | Log 10 (CFU + 1) Survivors (Staphylococcus aureus [1]; MPO 25 μg/mL, AA 5 mM, 60 min) | Log 10 (CFU + 1) Survivors (Staphylococcus aureus [1]; MPO 25 μg/mL, AA […], 30 min) | Log 10 (CFU + 1) Survivors (Staphylococcus aureus [1]; MPO 25 μg/mL, AA […], 60 min) | Log 10 (CFU + 1) Survivors (Staphylococcus aureus [1]; MPO 100 μg/mL, AA 5 mM, 30 min) | Log 10 (CFU + 1) Survivors (Staphylococcus aureus [1]; MPO 100 μg/mL, AA 5 mM, 60 min) | Log 10 (CFU + 1) Survivors (Staphylococcus aureus [1]; [5]) | Log 10 (CFU + 1) Survivors (Staphylococcus aureus [1]; [6]) | Average Viability CFU/ml 60 min (Staphylococcus aureus [1]; [7]) [CFU/ml] | Log 10 (CFU + 1) Survivors 60 min (Staphylococcus aureus [1]; [7]) | Log Reduction 60 min (Staphylococcus aureus [1]; [7]) | Average Viability CFU/ml 50 min (Staphylococcus aureus [1]; [8]) [CFU/ml] | Log Reduction 50 min (Staphylococcus aureus [1]; [8]) | log reduction at 5000 µM (Staphylococcus aureus [2]; [11]) | Average Viability CFU/ml 60 min (Staphylococcus aureus [2]; [11]) [CFU/ml] | other results |
| --- | --- | --- | --- | --- | --- | --- | --- | --- | --- | --- | --- | --- | --- | --- | --- | --- |
| CCOC(=O)[C@@H](N)C(C)C.Cl [L-Valine ethyl ester hydrochloride] | – | – | – | – | – | – | – | – | – | – | – | – | – | – | – | Average Viability CFU/ml 60 min (Staphylococcus aureus [1]; [3]): 0 CFU/ml; Log Reduction 60 min (Staphylococcus aureus [1]; [3]): 7.4; log reduction at 5000 µM (Staphylococcus aureus [2]; [4]): 0; Average Viability CFU/ml 60 min (Staphylococcus aureus [2]; [4]): 22300000 CFU/ml |
| O=C(O)[C@@H]1CCCN1 [L-Proline] | 7.1 | 3.9 | 7.0 | 6.8 | 4.9 | 0.0 | 5.8 | 0.0 | 4850 | 3.7 | 3.7 | 1235000 | 1.3 | 0 | 21600000 | Average Viability CFU/ml 50 min (Staphylococcus aureus [1]; [9]): 1500000 CFU/ml; Log Reduction 50 min (Staphylococcus aureus [1]; [9]): 1.2; Average Viability CFU/ml 50 min (Staphylococcus aureus [1]; [10]): 1835000 CFU/ml; Log Reduction 50 min (Staphylococcus aureus [1]; [10]): 1.2 |
| NCCS(=O)(=O)O [Taurine] | 7.3 | 7.0 | 7.3 | 7.1 | 7.3 | 5.0 | 7.3 | 5.1 | – | – | – | – | – | 0 | 21600000 | Average Viability CFU/ml 60 min (Staphylococcus aureus [1]; [12]): 830000 CFU/ml; Log 10 (CFU + 1) Survivors 60 min (Staphylococcus aureus [1]; [12]): 5.9; Log Reduction 60 min (Staphylococcus aureus [1]; [12]): 1.4 |
| CSCC[C@H](N)C(=O)O [L-Methionine] | – | – | – | – | – | – | – | – | 6600000 | 6.8 | 0.6 | – | – | 0.1 | 19800000 | – |
| O=C(O)[C@@H]1C[C@@H](O)CN1 [L-Hydroxyproline] | 7.3 | 7.3 | 7.4 | 6.1 | 7.2 | 0.9 | 7.2 | 7.3 | – | – | – | 13100000 | 0.3 | – | 20400000 | Average Viability CFU/ml 60 min (Staphylococcus aureus [1]; [12]): 0 CFU/ml; Log 10 (CFU + 1) Survivors 60 min (Staphylococcus aureus [1]; [12]): 0.0; Log Reduction 60 min (Staphylococcus aureus [1]; [12]): 7.3; Average Viability CFU/ml 50 min (Staphylococcus aureus [1]; [9]): 11450000 CFU/ml; Log Reduction 50 min (Staphylococcus aureus [1]; [9]): 0.3; Average Viability CFU/ml 50 min (Staphylococcus aureus [1]; [10]): 11550000 CFU/ml; Log Reduction 50 min (Staphylococcus aureus [1]; [10]): 0.4; log reduction at 5000 µM (Staphylococcus aureus [2]): 0 |
| N[C@H](Cc1ccc(O)cc1)C(=O)O [D-Tyrosine] | 6.8 | 5.9 | 6.7 | 7.0 | 6.7 | 5.0 | 5.8 | 0.0 | – | – | – | 1320000 | 1.3 | 0 | 23200000 | Average Viability CFU/ml 60 min (Staphylococcus aureus [1]; [13]): 9400 CFU/ml; Log Reduction 60 min (Staphylococcus aureus [1]; [13]): 3.4 |
| CC(CN)C(=O)O (racemic) [DL-3-Aminoisobutyric acid] | – | – | – | – | – | – | – | – | – | – | – | – | – | – | – | Average Viability CFU/ml 60 min (Staphylococcus aureus [1]; [3]): 0 CFU/ml; Log Reduction 60 min (Staphylococcus aureus [1]; [3]): 7.4; Average Viability CFU/ml 60 min (Staphylococcus aureus [2]; [4]): 24200000 CFU/ml; Log Reduction 60 min (Staphylococcus aureus [2]; [4]): 0.0 |
| N[C@@H](Cc1ccccc1)C(=O)O [L-Phenylalanine] | 7.1 | 0.0 | 7.0 | 4.9 | 0.0 | 0.0 | 0.0 | 0.0 | 0 | 0.0 | 7.4 | 10550000 | 0.4 | 0 | 22400000 | Average Viability CFU/ml 50 min (Staphylococcus aureus [1]; [14]): 11100000 CFU/ml; Log Reduction 50 min (Staphylococcus aureus [1]; [14]): 0.4; Average Viability CFU/ml 50 min (Staphylococcus aureus [1]; [10]): 12050000 CFU/ml; Log Reduction 50 min (Staphylococcus aureus [1]; [10]): 0.3; Average Viability CFU/ml 50 min (Staphylococcus aureus [1]; Table 19, amino acid 3.5 mM): 11200000 CFU/ml; Log Reduction 50 min (Staphylococcus aureus [1]; Table 19, amino acid 3.5 mM): 0.4 |
| N[C@@H](Cc1c[nH]cn1)C(=O)O [L-Histidine] | 7.3 | 7.3 | 7.3 | 7.3 | 6.8 | 4.7 | 7.3 | 7.3 | 48000 | 4.7 | 2.7 | 7000000 | 0.5 | 0 | 22700000 | Average Viability CFU/ml 50 min (Staphylococcus aureus [1]; [14]): 7000000 CFU/ml; Log Reduction 50 min (Staphylococcus aureus [1]; [14]): 0.6; Average Viability CFU/ml 50 min (Staphylococcus aureus [1]; [9]): 4750000 CFU/ml; Log Reduction 50 min (Staphylococcus aureus [1]; [9]): 0.7 |
| NC(=O)CC[C@H](N)C(=O)O [L-Glutamine] | 7.3 | 7.1 | 6.8 | 7.0 | 7.2 | 0.0 | 7.0 | 5.2 | 286 | 2.5 | 4.9 | 14350000 | 0.2 | 0 | 24100000 | Average Viability CFU/ml 50 min (Staphylococcus aureus [1]; [9]): 12550000 CFU/ml; Log Reduction 50 min (Staphylococcus aureus [1]; [9]): 0.3 |
| N[C@H](CC(=O)O)C(=O)O [D-Aspartic acid] | – | – | – | – | – | – | – | – | – | – | – | – | – | 0.1 | 20900000 | Average Viability CFU/ml 60 min (Staphylococcus aureus [1]; [13]): 570000 CFU/ml; Log Reduction 60 min (Staphylococcus aureus [1]; [13]): 1.6 |
| O=C(O)CNC(=O)c1ccccc1 [Hippuric acid] | 7.3 | 5.9 | 6.7 | 5.8 | 7.3 | 5.9 | 6.8 | 5.0 | – | – | – | – | – | 0 | 19700000 | Average Viability CFU/ml 60 min (Staphylococcus aureus [1]; [12]): 865000 CFU/ml; Log 10 (CFU + 1) Survivors 60 min (Staphylococcus aureus [1]; [12]): 5.9; Log Reduction 60 min (Staphylococcus aureus [1]; [12]): 1.4 |
| COC(=O)CN.Cl [Glycine methyl ester hydrochloride] | – | – | – | – | – | – | – | – | – | – | – | – | – | – | – | Average Viability CFU/ml 60 min (Staphylococcus aureus [1]; [3]): 0 CFU/ml; Log Reduction 60 min (Staphylococcus aureus [1]; [3]): 7.4; log reduction at 5000 µM (Staphylococcus aureus [2]): 0; Average Viability CFU/ml 60 min (Staphylococcus aureus [2]; [4]): 21100000 CFU/ml |
| N[C@H](CO)C(=O)O [D-Serine] | 6.8 | 6.5 | 6.7 | 6.0 | 6.0 | 0.0 | 6.0 | 3.9 | – | – | – | – | – | 0 | 23100000 | Average Viability CFU/ml 60 min (Staphylococcus aureus [1]; [13]): 0 CFU/ml; Log Reduction 60 min (Staphylococcus aureus [1]; [13]): 7.4; Average Viability CFU/ml 50 min (Staphylococcus aureus [1]; [14]): 945000 CFU/ml; Log Reduction 50 min (Staphylococcus aureus [1]; [14]): 1.5 |
